Results as given in article PMC5054364, “Neuroprotective pentapeptide CN-105 improves functional and histological outcomes in a murine model of intracerebral hemorrhage” (Scientific Reports, 2016).

Columns and labels:
[1] = CN-105 pharmacokinetics in brain and plasma (LC/MS); format: in vivo; conditions: mice
Text: One rationale for creating the smaller apoE mimetic peptides was to enhance CNS penetration and possibility of noninvasive mechanisms of delivery (for example, intranasal). To define pharmacokinetic parameters, we performed initial non-GLP studies in mice using stable radioisotope labeled CN-105 peptide (MW of heavy CN-105 was 362.7 vs. 357.7). […] The total CNS exposure was 44%; of note, this is approximately 5 fold higher than prior apoE based mimetic peptides.
Experiment 1. CN-105 pharmacokinetics in Brain and Plasma. The concentration of CN-105 was determined at 1, 3, 10, 15, 30 and 60 minutes (n = 5/time point) post injection using LC/MS.
A protocol was developed in collaboration with the Duke University Core Proteomics and Metabolomics Shared Resource using LC/MS on a high-resolution accurate-mass instrument. […] After extraction, samples were dried down in Speed Vac and reconstituted in 25 uL of 1% ACN/0.1% TFA/0.02% HFBA and analyzed using a nanoAcquity LC (Waters) coupled to a Synapt G2 Q-ToF (Waters). Quantitative data was extracted as selected ion chromatograms for both the native ((M + 2H)^2+at m/z 357.7 and heavy-labeled form CN-105 at m/z 362.7). Quantitation was accomplished by using a ratio of the peak area of the analyte and internal standard which was fit to a 7-point calibration curve (plasma R^2 = 0.997 and brain R^2 = 0.999).

[2] = test system: murine model of collagenase-induced ICH; experiment: F4/80 microglial staining and stereology after ICH; format: in vivo, C57BL/6J mice; conditions: 5 days after ICH; 0.05 mg/kg i.v. at 4, 8 and 24 hours post ICH; vehicle 14593 ± 116, p = 0.003; mean ± standard error, n = 3–4
Procedure: Experiment 5. Microglial staining. A separate cohort of animals was randomized to vehicle (n = 4) or CN-105 (n = 4) groups and received tail vein injections at 4, 8, and 24 hours post ICH. Immunohistochemical microglial staining was performed and gliosis was quantified by stereology. One mice in vehicle group died within 1 day after injury and was excluded.
Intrastriatal collagenase injection was used to induce ICH in mice, as previously described. Briefly, the trachea was intubated after anesthesia induction with 4.6% isoflurane, and the lungs were mechanically ventilated with 1.5% isoflurane in a mixture of 30%/70% O2/N2. Rectal temperature was maintained at 37 °C ± 0.2 °C by circulating warm water in an underbody waterbed. The animal’s head was secured in a stereotactic frame, and a midline scalp incision was made. After exposing the skull, a burr hole was created 2.2 mm left lateral to bregma, and a 0.5 μL syringe needle (Hamilton, Reno, NV, USA) was advanced to a depth of 3 mm from cortex. Type IV-S Clostridial collagenase (Sigma, St. Louis, MO, USA) was injected over 2 minutes (0.075 U in 0.4 μL normal saline). […]
(§1) After anesthetic induction, mice underwent transcardial perfusion with 30 mL normal saline. […] Cells were counted using a Nikon 218912 light microscope interfaced with the StereoInvestigator software package (MicroBrightField, Williston, VT, USA). […]

[3] = test system: murine model of collagenase-induced ICH; experiment: NeuN neuronal survival, stereology after ICH; format: in vivo, C57BL/6J mice; conditions: ipsilateral, 33 days post ICH, 0.05 mg/kg i.v. at 4, 8 and 24 hours, n = 7/group
Text: Experiment 6. Neuronal survival. The hippocampus has been associated with spatial learning and memory. To determine whether histological outcome correlates with functional outcomes, neuronal density was quantified in the hippocampus and striatum of the mice (n = 7/group) in experiment 4 by stereology at 33 days post-ICH following MWM testing.
(§2) Intrastriatal collagenase injection was used to induce ICH in mice, as previously described. Briefly, the trachea was intubated after anesthesia induction with 4.6% isoflurane, and the lungs were mechanically ventilated with 1.5% isoflurane in a mixture of 30%/70% O2/N2. Rectal temperature was maintained at 37 °C ± 0.2 °C by circulating warm water in an underbody waterbed. The animal’s head was secured in a stereotactic frame, and a midline scalp incision was made. After exposing the skull, a burr hole was created 2.2 mm left lateral to bregma, and a 0.5 μL syringe needle (Hamilton, Reno, NV, USA) was advanced to a depth of 3 mm from cortex. Type IV-S Clostridial collagenase (Sigma, St. Louis, MO, USA) was injected over 2 minutes (0.075 U in 0.4 μL normal saline). After closing the incision, animals were allowed to recover spontaneous ventilation, and were then extubated and given free access to food and water.
CN-105 (Ac-VSRRR-amide) was synthesized by Polypeptide Inc. (San Diego, CA) to a purity of >99%, and was dissolved in normal saline. Using a murine model of traumatic brain injury, 0.05 mg/kg CN-105 was previously found to be the lowest dose that improved functional performance after injury (data not shown). Here, therefore, 100 μL 0.05 mg/kg CN-105 in saline, or vehicle, was administered via intravenous tail vein injection 3 times at pre-specified timepoints after ICH. Animals were gently restrained by a rodent restrainer (Harvard Apparatus, Holliston, MA) during each administration.
as §1

[4] = test system: murine model of collagenase-induced ICH; experiment: Neuroseverity score after ICH; format: in vivo, C57BL/6J mice; conditions: 0.05 mg/kg i.v. at 4, 8 and 24 hours post ICH; p = 0.12; n = 14/group
Procedure: Experiment 4. Neurobehavioral assessment. Animals were randomized to vehicle (n = 14) or CN-105 (n = 14) groups, and evaluated for neurobehavioral function (neuroscore), vestibulomotor function (rotarod), and spatial learning (MWM). Mice received tail vein injections of vehicle or CN105 at 4, 8, and 24 hours post ICH.
as §2
CN-105 (Ac-VSRRR-amide) was synthesized by Polypeptide Inc. (San Diego, CA) to a purity of >99%, and was dissolved in normal saline. […]

For Ac-VSRRR-NH2 [CN-105, Ac-VSRRR-amide], the “AUC0–60 in brain” value ([1]; brain homogenate (urea in buffer), 0-60 minutes post injection, n = 5/time point, LC/MS) was 548 fmol·min/µL, the “total CNS exposure” value ([1]; brain versus plasma AUC0–60) was 44% and the “AUC0–60 in plasma” value ([1]; plasma, 0-60 minutes post injection, n = 5/time point, LC/MS) was 1253 fmol·min/µL. For the same substance, the half-life ([1]; mouse, non-GLP study, stable isotope labeled CN-105, plasma sampled 1-60 minutes post injection, n = 5/time point, LC/MS, read-out: terminal plasma half-life) was 27 min, the “number of F4/80-positive cells in the ipsilateral hippocampi” value [2] was 9327 ± 838 cells/mm^3 and the “NeuN-positive cell numbers, striatum” value ([3]; vehicle 25142 ± 5777, p = 0.27) was 21816 ± 5073 cells/mm^3. For the same substance, the “NeuN-positive cell numbers, dentate gyrus polymorphic region” value ([3]; vehicle 34919 ± 9378, p = 0.16) was 42109 ± 8439 cells/mm^3, the “NeuN-positive cell numbers, CA3 region” value ([3]; vehicle 188719 ± 4780, p = 0.009) was 225773 ± 10841 cells/mm^3 and the “neuroseverity scores, Day 1 to Day 5 after ICH versus vehicle” value [4] was “mild but not significant improvement”.
